{"source": "paper PMC9862034", "about": "“Novel Antioxidant Peptides from Pearl Shell Meat Hydrolysate and Their Antioxidant Activity Mechanism” (Molecules, 2023)", "key": {"HepG2 cells [1]": {"system": "HepG2 cells", "assay": "cells", "conditions": "for EC50 (cellular antioxidant activity): 1 h", "description": "Obtained from National Collection of Authenticated Cell Cultural (Shanghai, China), HepG2 cells between 20 and 35 passages were grown in medium (DMEM supplemented with 10% fetal bovine serum, 1% antibiotic–antimycotic solution) in a 5% CO2 incubator at 37 °C.\nCellular antioxidant activity (CAA) was determined according to the method of Wolfe et al.. HepG2 cells were seeded in 96-well plates (6 × 10^4 cells/well) and cultured for 24 h. DCFH-DA working solution (50 µL, 50 µM) and 50 µL of medium with sample (0.005–0.1 mg/mL) were added in the sample treated group. DCFH-DA working solution (50 µL, 50 µM) and sterile water (50 µL) were added to the control group and the blank group. After incubated for 1 h, the cells were washed with PBS. Then, AAPH working solution (100 µL, […]) was added to the sample treated group and the control group, and fresh medium was added to the blank group. Fluorescence values were determined every 5 min for 1 h at an excitation wavelength of 485 nm and a determination wavelength of 528 nm. […] The CAA unit was calculated by the area of fluorescence curve (AUC), as shown in Equation (3). […] The Trolox equivalent (TEAC µM TE/g peptides) was calculated to represent the CAA value. (3) CAA=[1−(AUCt−AUCo)/(AUCc−AUCo)]×100 where AUCt, AUCc, and AUCo were the fluorescence curve area of the test sample, the control, and the blank group, respectively."}, "HepG2 cells [2]": {"system": "HepG2 cells", "type": "cell-based", "description": "HepG2 cells were seeded in 96-well plates (1 × 10^4 cells/well) and cultured for 48 h. To the AAPH damage group, we added 150 µL of fresh medium containing AAPH (final concentration 0.025–25 mM), and to the control group, we added fresh medium without AAPH. After culturing for 24 h, cell viability was determined by the MTT method. HepG2 cells were seeded in 96-well plates (1 × 10^4 cells/well) and cultured for 24 h. To the sample treated group, we added 150 µL of fresh medium containing samples (0.025–0.2 mg/mL). To the control group and AAPH damage group, we added fresh medium without samples. After treating for 24 h, to the sample treated group and AAPH damage group, we added 50 µL of fresh medium containing AAPH (final concentrations of 0.25 and 10 mM). After culturing for 24 h, cell viability was determined."}, "HepG2 cells [3]": {"system": "HepG2 cells", "set-up": "method as in 2 sources, ref 23 = [23]; PMID 28764069; doi:10.1016/j.foodchem.2017.05.144; 23. Liang R. Zhang Z. Lin S. Effects of pulsed electric field on intracellular antioxidant activity and antioxidant enzyme regulating capacities of pine nut ( Pinus koraiensis ) peptide QDHCH in HepG2 ||| ref 24 = [24]; PMID 29195889; doi:10.1016/j.foodres.2016.10.023; 24. Wang L. Ding L. Yu Z. Zhang T. Ma S. Liu J. Intracellular ROS scavenging and antioxidant enzyme regulating capacities of corn gluten meal-derived antioxidant peptides in HepG2 cells Food Res. Int.", "conditions": "related report, pine nut peptide; cited from earlier work", "from_the_text": "The principle of CAA is that intracellular lipase degrades the fluorescent probe DCFH-DA to DCFH, which is oxidized to fluorescent DCF by intracellular free radicals under AAPH induction, and the antioxidant peptide can protect the probe from oxidation. […] In related reports, ..."}}, "note": "Like-named read-outs stand apart in the source and are kept apart here. No end group written: not given here."}
{"molecule": "NSVAA [NSVAA]", "values": [{"measurement": "EC50 (cellular antioxidant activity)", "setting": "HepG2 cells [1]", "result": 95, "unit": "µg/mL"}, {"measurement": "cell viability, 50% cell viability model", "setting": "HepG2 cells [2]; 24 h, 0.2 mg/mL", "result": 70.55, "unit": "%"}, {"measurement": "cell viability, 80% cell viability model", "setting": "HepG2 cells [2]; 24 h, 0.2 mg/mL", "result": 100.09, "unit": "%"}]}
{"molecule": "SGTAV [SGTAV]", "values": [{"measurement": "EC50 (cellular antioxidant activity)", "setting": "HepG2 cells [1]", "result": 9, "unit": "µg/mL"}, {"measurement": "cell viability, 50% cell viability model", "setting": "HepG2 cells [2]; 24 h, 0.2 mg/mL", "result": 73.61, "unit": "%"}, {"measurement": "cell viability, 80% cell viability model", "setting": "HepG2 cells [2]; 24 h, 0.2 mg/mL", "result": 107.43, "unit": "%"}]}
{"molecule": "SPSSS [SPSSS]", "values": [{"measurement": "EC50 (cellular antioxidant activity)", "setting": "HepG2 cells [1]", "result": 27, "unit": "µg/mL"}, {"measurement": "cell viability, 50% cell viability model", "setting": "HepG2 cells [2]; 24 h, 0.2 mg/mL", "result": 73.52, "unit": "%"}, {"measurement": "cell viability, 80% cell viability model", "setting": "HepG2 cells [2]; 24 h, 0.2 mg/mL", "result": 101.09, "unit": "%"}]}
{"molecule": "TGVAS [TGVAS]", "values": [{"measurement": "EC50 (cellular antioxidant activity)", "setting": "HepG2 cells [1]", "result": 37, "unit": "µg/mL"}, {"measurement": "cell viability, 50% cell viability model", "setting": "HepG2 cells [2]; 24 h, 0.2 mg/mL", "result": 64.69, "unit": "%"}]}
{"molecule": "N[C@@H](CCC(=O)N[C@@H](CS)C(=O)NCC(=O)O)C(=O)O", "note": "[GSH, Glutathione, reference compound]", "values": [{"measurement": "CAA Value", "setting": "HepG2 cells [1]; HepG2, Trolox equivalent, Trolox as standard antioxidant", "result": 4.593, "unit": "mM TE/g Peptide"}, {"measurement": "EC50", "setting": "HepG2 cells [1]; Homo sapiens, HepG2, 1 h, read-out: EC50 (cellular antioxidant activity)", "result": 30, "unit": "µg/mL"}, {"measurement": "cell viability, 50% cell viability model", "setting": "HepG2 cells [2]; HepG2, AAPH-induced damage (0.25 mM as printed), sample 0.2 mg/mL 24 h then AAPH 24 h, MTT, AAPH damage group 49.51%", "result": 57.60, "unit": "%"}, {"measurement": "cell viability, 80% cell viability model", "setting": "HepG2 cells [2]; HepG2, AAPH-induced damage (10 mM [sic]), sample 0.2 mg/mL 24 h then AAPH 24 h, MTT, AAPH damage group 79.41%", "result": 92.08, "unit": "%"}]}
{"molecule": "GGSIT [GGSIT]", "values": [{"measurement": "EC50 (cellular antioxidant activity)", "setting": "HepG2 cells [1]", "result": 73, "unit": "µg/mL"}, {"measurement": "cell viability, 50% cell viability model", "setting": "HepG2 cells [2]; 24 h, 0.2 mg/mL", "result": 66.35, "unit": "%"}, {"measurement": "cell viability, 80% cell viability model", "setting": "HepG2 cells [2]; 24 h, 0.2 mg/mL", "result": 96.06, "unit": "%"}]}
{"molecule": "QDHCH [pine nut peptide of a related report]", "values": [{"measurement": "EC50 value (cellular antioxidant activity)", "setting": "HepG2 cells [3]", "result": 130, "unit": "µg/mL"}]}
{"molecule": "GGSLT [GGSLT]", "values": [{"measurement": "EC50 (cellular antioxidant activity)", "setting": "HepG2 cells [1]", "result": 64, "unit": "µg/mL"}, {"measurement": "cell viability, 50% cell viability model", "setting": "HepG2 cells [2]; 24 h, 0.2 mg/mL", "result": 68.25, "unit": "%"}]}
